Assay results reported in patent publication US9169254B2, “Spiroimidazolone derivative” (Chugai Seiyaku Kabushiki Kaisha, priority 2009, dated 2015).

target: T1, human PTH1 receptor (Homo sapiens, UniProt Q03431); assay: In vitro cAMP signal activity in HKRK-B7 cells (LLC-PK1 cells overexpressing the human PTH1 receptor); format: cell-based; conditions: HKRK-B7 cells; compound at 1×10^−3 M; cAMP produced as percentage of that produced by hPTH(1-34) at 100 nM
T1 sequence (Q03431 27-593): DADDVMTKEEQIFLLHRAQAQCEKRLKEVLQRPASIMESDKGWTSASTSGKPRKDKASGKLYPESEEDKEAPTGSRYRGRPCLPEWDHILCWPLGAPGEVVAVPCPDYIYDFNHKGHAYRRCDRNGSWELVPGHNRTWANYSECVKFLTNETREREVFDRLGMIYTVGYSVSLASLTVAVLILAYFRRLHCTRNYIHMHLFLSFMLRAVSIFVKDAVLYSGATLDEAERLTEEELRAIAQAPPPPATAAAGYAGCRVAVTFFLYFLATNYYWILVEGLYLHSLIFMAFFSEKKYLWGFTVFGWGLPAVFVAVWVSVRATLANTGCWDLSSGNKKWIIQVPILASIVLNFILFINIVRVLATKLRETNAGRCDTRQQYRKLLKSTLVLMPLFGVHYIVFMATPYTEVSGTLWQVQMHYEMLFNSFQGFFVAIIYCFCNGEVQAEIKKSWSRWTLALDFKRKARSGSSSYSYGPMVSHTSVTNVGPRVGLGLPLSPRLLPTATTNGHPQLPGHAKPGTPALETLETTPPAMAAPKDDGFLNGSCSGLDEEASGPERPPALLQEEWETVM

| Structure (SMILES) | cAMP production activity (%) |
| --- | --- |
| CC(=O)Nc1ccc(CCS(=O)(=O)N2CCC3(CC2)N=C(c2ccc(C#N)cc2)NC3=O)c(C)c1 [Compound 906, N-(4-{2-[2-(4-cyano-phenyl)-4-oxo-1,3,8-triaza-spiro[4.5]dec-1-ene-8-sulfonyl]-ethyl}-3-methyl-phenyl)-acetamide] | 78 |
| CC(=O)Nc1ccc(CCS(=O)(=O)N2CCC3(CC2)N=C(c2cccc(C#N)c2)NC3=O)c(C)c1 [Compound 907, N-(4-{2-[2-(3-cyano-phenyl)-4-oxo-1,3,8-triaza-spiro[4.5]dec-1-ene-8-sulfonyl]-ethyl}-3-methyl-phenyl)-acetamide] | 85 |
| CC(=O)Nc1ccc(CCS(=O)(=O)N2CCC3(CC2)N=C(c2ccccc2C#N)NC3=O)c(C)c1 [Compound 908, N-(4-{2-[2-(2-cyano-phenyl)-4-oxo-1,3,8-triaza-spiro[4.5]dec-1-ene-8-sulfonyl]-ethyl}-3-methyl-phenyl)-acetamide] | 74 |
| CC(=O)Nc1ccc(CCS(=O)(=O)N2CCC3(CC2)N=C(C2CCC(C(C)(C)C)CC2)NC3=O)c(C)c1 (centres unmarked) [Compound 909, N-(4-{2-[2-(4-tert-butyl-cyclohexyl)-4-oxo-1,3,8-triaza-spiro[4.5]dec-1-ene-8-sulfonyl]-ethyl}-3-methyl-phenyl)-acetamide] | 78 |
| CCCCOC1CCC(C2=NC3(CCN(S(=O)(=O)CCc4ccc(NC(C)=O)cc4C)CC3)C(=O)N2)CC1 (centres unmarked) [Compound 912, N-(4-{2-[2-(4-butoxy-cyclohexyl)-4-oxo-1,3,8-triaza-spiro[4.5]dec-1-ene-8-sulfonyl]-ethyl}-3-methyl-phenyl)-acetamide] | 98 |

Other lines, results leading:

| cAMP production activity (%) | Structure (SMILES) |
| --- | --- |
| 64 | CCOCC1CCC(C2=NC3(CCN(S(=O)(=O)CCc4ccc(NC(C)=O)cc4C)CC3)C(=O)N2)CC1 (centres unmarked) [Compound 910, N-(4-{2-[2-(4-ethoxymethyl-cyclohexyl)-4-oxo-1,3,8-triaza-spiro[4.5]dec-1-ene-8-sulfonyl]-ethyl}-3-methyl-phenyl)-acetamide] |
| 71 | CCCOC1CCC(C2=NC3(CCN(S(=O)(=O)CCc4ccc(NC(C)=O)cc4C)CC3)C(=O)N2)CC1 (centres unmarked) [Compound 911, N-(3-methyl-4-{2-[4-oxo-2-(4-propoxy-cyclohexyl)-1,3,8-triaza-spiro[4.5]dec-1-ene-8-sulfonyl]-ethyl}-phenyl)-acetamide] |
| 81 | CC(=O)Nc1ccc(CCS(=O)(=O)N2CCC3(CC2)N=C(C2CCC(COC(C)C)CC2)NC3=O)c(C)c1 (centres unmarked) [Compound 913, N-(4-{2-[2-(4-isopropoxymethyl-cyclohexyl)-4-oxo-1,3,8-triaza-spiro[4.5]dec-1-ene-8-sulfonyl]-ethyl}-3-methyl-phenyl)-acetamide] |
| 68 | CC(=O)Nc1ccc(CCS(=O)(=O)N2CCC3(CC2)N=C([C@H]2CC[C@@H](OCCCF)CC2)NC3=O)c(C)c1 [Compound 914, N-[4-(2-{2-[4-(3-fluoro-propoxy)-cyclohexyl]-4-oxo-1,3,8-triaza-spiro[4.5]dec-1-ene-8-sulfonyl}-ethyl)-3-methyl-phenyl]-acetamide] |
| 61 | CC(=O)Nc1ccc(CCS(=O)(=O)N2CCC3(CC2)N=C([C@H]2CC[C@H](OCCCF)CC2)NC3=O)c(C)c1 [Compound 915, N-[4-(2-{2-[4-(3-fluoro-propoxy)-cyclohexyl]-4-oxo-1,3,8-triaza-spiro[4.5]dec-1-ene-8-sulfonyl}-ethyl)-3-methyl-phenyl]-acetamide] |
| 59 | CC(=O)Nc1ccc(CCS(=O)(=O)N2CCC3(CC2)N=C([C@H]2CC[C@H](/C=C/C(F)F)CC2)NC3=O)c(C)c1 [Compound 916, N-[4-(2-{2-[4-((E)-3,3-difluoro-propenyl)-cyclohexyl]-4-oxo-1,3,8-triaza-spiro[4.5]dec-1-ene-8-sulfonyl}-ethyl)-3-methyl-phenyl]-acetamide] |
